The record followed here is PMC10327353 (Breast Cancer Research : BCR, 2023).

A value given as a limit tells only on which side of the number the result lay.

In series [1] the target is T1, wild-type EGFR (Homo sapiens, UniProt P00533).
T1 construct: endogenous in cells; host or cells: A431
Kind of series: pEGFR MSD assay in A431 cells. In kind it is cell-based. On the procedure:
A431 and BT474C1-Luci Mono1 cells were seeded in 96-well plates at 20,000 cells/well in DMEM medium containing 1% FBS. After overnight incubation, all cells were treated with compounds at a series of concentrations for 4 hrs. For A431 cell line, an extra stimulation with recombinant human EGF (100 ng/ml for 10 minutes) is applied to activate wild-type EGFR following compound treatment. pEGFR^Y1068 and total EGFR levels were measured by an electro chemiluminescent method (MULTI-SPOT®96 4-Spot HB Prototype EGFR Triplex […]: pEGFR (Y1068), Total EGFR; MESO SCALE DISCOVERY, Cat# N45ZB-1) with MSD SECTOR® Imager, which outputs the ratio of pEGFR/total EGFR for each well. pHER2^Y1248 and total HER2 levels were measured similarly using pHER2 (Y1248) Assay Whole Cell Lysate Kit (MESO SCALE DISCOVERY, Cat# K151CLD-3). The percentage of inhibition was calculated as: % Inhibition = 100 x [1 - (ratio of the sample well - ratio of Min ctrl well)/ (ratio of Max ctrl well - ratio of Min ctrl well)].

Series [2] deals with T2, P-gp (MDR1) (Homo sapiens, UniProt P08183).
T2 construct: expressed in transfected cells; host or cells: MDCKII-MDR1
Kind of series: P-gp efflux ratio, bi-directional transport assay. Type of series: in vitro ADME. An excerpt:
Passive permeability (Papp) characterizes the rate across the cell membrane due to passive diffusion. A high permeability enables the rapid establishment of equilibrium among plasma, CSF, and brain compartments. Except for passive permeability, sufficient unbound drug concentration in the brain is governed by efflux transporters, including P-gp (MDR1, ABCB1) and BCRP, at BBB. Efflux ratio (ER) reflects the liability of a compound to be pumped out of the brain by BBB efflux transporters, which is indicated by the distribution disequilibrium between the plasma and the brain compartments.
[…] The adjusted efflux ratio was used to determine if DZD1516/DZ2678 underwent active efflux. Verapamil, a P-glycoprotein (P-gp) inhibitor, was used to identify if any active transport processes were mediated through P-gp. The apical-to-basolateral (A-B) and basolateral-to-apical (B-A) transport of DZD1516/DZ2678 in HBSS (25 mM HEPES, pH 7.4) with 0.1% BSA was measured across MDCKII-MDR1 cell monolayers in the absence and presence of the P-gp inhibitor, verapamil (100 μM). The apical-to-basolateral (A-B) and basolateral-to-apical (B-A) transport of DZD1516/DZ2678 in HBSS (25 mM HEPES, pH 7.4) with 0.1% BSA was also measured across MDCKII cell monolayers in the absence and presence of the P-gp inhibitor, verapamil. Incubations were performed at approximately 37°C for 120 min, with the functionality of the test system being confirmed using 5 μM digoxin as a positive control substrate. […] determined by quantifying substrate concentration in the incubation medium of the donor compartment at the beginning of the incubation period and both donor and receiver compartments at the end of the incubation period. The data was used to calculate the apparent permeability (Papp). All incubations were performed in triplicate, and the integrity of the cell monolayers was confirmed using the marker Lucifer yellow.

Series [3] has as its target potassium ion-channel hERG (Homo sapiens, UniProt Q12809). Kind of series: hERG in vitro safety pharmacology. Type of series: biochemical. Background: hERG is a cardiac potassium channel; its block is linked to QT prolongation.
The subject of series [4] is BT474C1-Luci Mono1 BM xenograft. Kind of series: BM (brain metastasis) BT474C1-Luci Mono1 xenograft model. Type of series: in vivo, nude mice. On the procedure:
The BM model was established by intracerebral (ICB) injection of 4 µl of cell suspension containing 3 × 10^5 cells into each mouse following similar procedures published (30). In brieft, 17β- ESTRADIOL (90-day release 0.36 mg/pellet) were injected subcutaneously 24 hrs before cell inoculation. Under anesthesia, a sagittal incision (approximately 1 cm long) was made over the parieto-occipital bone using a sterile scalpel. Then a hole was punctured on the skull at 2.5 mm to the right of the bregma and 1 mm anterior to the coronal suture using a sterile 25-gauge sharp drill. […] The bioluminescent signals of the implanted cells were measured by the Xenogen IVIS spectrum imaging system (PerkinElmer, USA) to monitor tumor growth. […]
In both BM and LM models, the day of randomization was defined as Day 0 and the treatment was started one day after randomization. The bioluminescence signals and body weight of the mice were measured once weekly. Relative bioluminescence intensity on a specific day was calculated by dividing the bioluminescence intensity on that day by the bioluminescence intensity on Day 0. The tumour growth inhibition (TGI) was calculated by formula: TGI (%) = (1-(relative bioluminescence intensity of treated group)/(relative bioluminescence intensity of control group)) x 100.Establishment of SC model

Series [5] has as its system HER2+ metastatic breast cancer. Briefly: Phase 1 study: antitumor activity (modified RECIST v1.1). Type of series: in vivo, human. Here is the method: Tumor imaging assessments were conducted every 6 weeks during the first 24 weeks (relative to C1D1) and every 9 weeks thereafter per investigator review according to modified RECIST v1.1 until progressive disease, starting a new anticancer therapy or withdrawal of informed consent (Additional file 1).
Tumor imaging assessments were conducted every six weeks during the first 24 weeks (relative to C1D1) and every nine weeks thereafter per investigator review according to modified RECIST v1.1 until progressive disease, starting a new anti-cancer therapy or withdrawal of informed consent. Patients who achieved an objective response had confirmatory scans at least four weeks apart.
The modified RECIST 1.1 used in this study includes both CNS assessment and extracranial assessment. A maximum of five measurable extracranial lesions, with a maximum of two lesions per organ, were selected in patients with extracranial disease. In addition, a maximum of five measurable intracranial lesions were selected in patients with intracranial disease. […] An overall response will be derived based on extracranial and intracranial response as described in the below table.

T1 sequence (P00533 25-1210): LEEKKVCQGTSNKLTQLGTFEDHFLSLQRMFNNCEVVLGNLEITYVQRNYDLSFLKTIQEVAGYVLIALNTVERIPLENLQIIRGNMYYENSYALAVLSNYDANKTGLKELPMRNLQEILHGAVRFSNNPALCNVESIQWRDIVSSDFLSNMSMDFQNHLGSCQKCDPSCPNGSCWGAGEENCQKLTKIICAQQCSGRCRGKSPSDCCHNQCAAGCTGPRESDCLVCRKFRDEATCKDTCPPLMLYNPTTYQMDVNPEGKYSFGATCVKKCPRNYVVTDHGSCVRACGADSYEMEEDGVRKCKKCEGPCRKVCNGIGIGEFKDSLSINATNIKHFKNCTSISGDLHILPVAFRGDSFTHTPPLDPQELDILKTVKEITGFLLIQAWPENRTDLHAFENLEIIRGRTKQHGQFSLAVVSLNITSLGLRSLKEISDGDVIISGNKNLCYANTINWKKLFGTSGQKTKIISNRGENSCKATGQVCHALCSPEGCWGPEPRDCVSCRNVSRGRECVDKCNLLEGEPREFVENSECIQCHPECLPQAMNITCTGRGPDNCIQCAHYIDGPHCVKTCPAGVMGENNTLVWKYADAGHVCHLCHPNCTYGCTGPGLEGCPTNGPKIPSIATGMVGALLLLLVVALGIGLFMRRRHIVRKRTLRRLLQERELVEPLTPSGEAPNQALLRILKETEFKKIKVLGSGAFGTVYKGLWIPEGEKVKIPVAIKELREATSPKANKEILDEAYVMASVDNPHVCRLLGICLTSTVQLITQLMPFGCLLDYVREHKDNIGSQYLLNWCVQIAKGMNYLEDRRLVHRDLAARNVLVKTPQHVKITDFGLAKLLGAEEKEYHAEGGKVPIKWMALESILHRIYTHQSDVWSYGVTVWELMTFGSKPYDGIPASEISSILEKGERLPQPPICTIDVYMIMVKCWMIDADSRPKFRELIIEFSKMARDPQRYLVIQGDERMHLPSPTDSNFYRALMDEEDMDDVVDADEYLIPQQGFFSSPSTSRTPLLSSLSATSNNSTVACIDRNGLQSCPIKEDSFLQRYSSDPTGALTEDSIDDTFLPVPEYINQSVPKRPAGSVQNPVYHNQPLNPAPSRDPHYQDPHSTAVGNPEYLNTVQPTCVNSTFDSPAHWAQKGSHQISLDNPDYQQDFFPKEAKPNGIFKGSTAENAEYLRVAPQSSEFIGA
T2 sequence (P08183 whole entry): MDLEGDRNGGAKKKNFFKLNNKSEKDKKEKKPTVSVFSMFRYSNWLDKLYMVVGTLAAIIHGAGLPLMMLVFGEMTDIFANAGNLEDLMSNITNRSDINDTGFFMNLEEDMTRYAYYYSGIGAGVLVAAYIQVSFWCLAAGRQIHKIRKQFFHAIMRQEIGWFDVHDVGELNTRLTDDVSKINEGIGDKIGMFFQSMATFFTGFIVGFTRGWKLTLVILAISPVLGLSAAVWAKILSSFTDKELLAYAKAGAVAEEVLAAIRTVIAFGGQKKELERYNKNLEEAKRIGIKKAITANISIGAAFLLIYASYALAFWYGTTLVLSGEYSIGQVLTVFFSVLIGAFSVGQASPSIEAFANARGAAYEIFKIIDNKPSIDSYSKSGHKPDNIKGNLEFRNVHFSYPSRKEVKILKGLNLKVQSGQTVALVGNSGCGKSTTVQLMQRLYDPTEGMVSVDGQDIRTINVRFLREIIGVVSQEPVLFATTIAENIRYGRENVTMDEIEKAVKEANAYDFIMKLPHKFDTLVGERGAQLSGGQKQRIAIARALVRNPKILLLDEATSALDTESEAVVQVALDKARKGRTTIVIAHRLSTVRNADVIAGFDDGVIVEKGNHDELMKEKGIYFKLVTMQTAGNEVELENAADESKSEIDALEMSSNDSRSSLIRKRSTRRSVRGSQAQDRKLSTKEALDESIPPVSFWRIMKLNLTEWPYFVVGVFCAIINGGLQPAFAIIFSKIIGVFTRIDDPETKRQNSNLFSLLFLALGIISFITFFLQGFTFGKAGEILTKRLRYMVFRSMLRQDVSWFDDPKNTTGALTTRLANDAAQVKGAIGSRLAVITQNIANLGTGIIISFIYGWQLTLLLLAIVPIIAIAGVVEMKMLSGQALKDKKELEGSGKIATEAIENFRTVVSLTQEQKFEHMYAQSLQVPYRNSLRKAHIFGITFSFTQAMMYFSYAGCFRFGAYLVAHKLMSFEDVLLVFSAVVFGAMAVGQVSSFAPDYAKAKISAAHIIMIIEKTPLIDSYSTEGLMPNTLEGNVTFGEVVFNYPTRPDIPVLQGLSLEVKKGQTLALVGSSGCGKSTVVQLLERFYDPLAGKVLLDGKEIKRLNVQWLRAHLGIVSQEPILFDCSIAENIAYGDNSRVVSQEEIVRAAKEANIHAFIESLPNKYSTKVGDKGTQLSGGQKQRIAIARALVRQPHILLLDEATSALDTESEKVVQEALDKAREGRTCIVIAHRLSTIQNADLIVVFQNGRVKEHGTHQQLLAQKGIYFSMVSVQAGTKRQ
Chain of potassium ion-channel hERG (Q12809 whole entry): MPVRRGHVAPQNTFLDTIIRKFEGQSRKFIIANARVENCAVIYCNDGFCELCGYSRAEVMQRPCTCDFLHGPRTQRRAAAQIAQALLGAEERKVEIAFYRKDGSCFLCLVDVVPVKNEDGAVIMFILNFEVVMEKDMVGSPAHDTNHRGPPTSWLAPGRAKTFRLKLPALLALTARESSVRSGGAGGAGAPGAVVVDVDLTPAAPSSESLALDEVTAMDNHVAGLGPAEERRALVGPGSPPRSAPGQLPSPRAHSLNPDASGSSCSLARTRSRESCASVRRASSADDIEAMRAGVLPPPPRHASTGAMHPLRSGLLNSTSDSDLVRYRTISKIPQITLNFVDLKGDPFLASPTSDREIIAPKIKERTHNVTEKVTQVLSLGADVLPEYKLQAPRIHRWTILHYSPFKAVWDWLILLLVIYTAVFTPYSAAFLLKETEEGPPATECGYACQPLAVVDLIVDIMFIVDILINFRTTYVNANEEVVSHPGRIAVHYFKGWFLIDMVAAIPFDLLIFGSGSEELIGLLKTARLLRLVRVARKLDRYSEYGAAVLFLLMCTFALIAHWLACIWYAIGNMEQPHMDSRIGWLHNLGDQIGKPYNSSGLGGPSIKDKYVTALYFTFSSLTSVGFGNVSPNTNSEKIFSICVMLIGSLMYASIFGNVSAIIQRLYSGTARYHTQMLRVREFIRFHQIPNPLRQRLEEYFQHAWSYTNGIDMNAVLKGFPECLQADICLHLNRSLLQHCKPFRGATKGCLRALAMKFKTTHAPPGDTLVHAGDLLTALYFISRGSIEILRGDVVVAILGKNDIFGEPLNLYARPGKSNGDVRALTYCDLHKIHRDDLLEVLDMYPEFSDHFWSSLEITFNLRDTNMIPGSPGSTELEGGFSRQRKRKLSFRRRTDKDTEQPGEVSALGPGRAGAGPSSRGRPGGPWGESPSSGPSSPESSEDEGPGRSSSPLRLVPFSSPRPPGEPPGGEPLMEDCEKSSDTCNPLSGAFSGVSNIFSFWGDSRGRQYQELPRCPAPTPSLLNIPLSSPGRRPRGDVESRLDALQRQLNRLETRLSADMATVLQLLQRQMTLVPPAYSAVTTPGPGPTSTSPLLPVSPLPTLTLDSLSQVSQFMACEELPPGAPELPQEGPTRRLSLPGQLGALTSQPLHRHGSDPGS

A word on the IC50: it is the concentration needed to halve the response being measured. As a reminder, the efflux ratio is the permeability from basolateral to apical divided by that in the opposite direction, in the common usage. For orientation: TGI means how far tumour growth fell short of that in controls. High values mean much slowing of growth, low ones little slowing of growth. Consider `COc1cc(O[C@H]2CCN(C)CC2(F)F)c2c(Nc3ccc(Oc4ccn5ncnc5c4)c(C)c3)ncnc2c1` [DZD1516], for which the IC50 in series [1] (A431, 4 hrs treatment, EGF stimulation) was 1.46 µM; in series [3], 3.29 µM. Also, the “selectivity against wild-type EGFR” value in series [1] (pEGFR A431 vs pHER2 BT474C1) is “greater than 300 fold”. In series [2] (human, MDCK-MDR1, pH 7.4), the efflux ratio at 120 min, 1 µM is below 2. The “Efflux ratio P-gp @1 µM” value in series [2] (listed as Cpd-5) was determined as 1.6. The TGI in series [4] (100 mg/kg twice daily) is 48%; in series [4] (150 mg/kg twice daily) it was 79%. This molecule yielded a disease control rate in series [5] (MTD (250 mg), 3/5) of 60%. Further, the “patients who achieved stable disease” value in series [5] (all dose levels) is reported as 6 out of 23. For the same molecule, the “best antitumor efficacy in intracranial, extracranial and overall lesions” value in series [5] (patients, median seven lines of prior systemic therapy) is reported as “stable disease”.
